Data from patent US20050208549A1, “Testing endosymbiont cellular organelles and compounds identifiable therewith” (priority 2000, published 2005).

Test system: Fibroblasts
Assay: One-tube duplex NASBA ratio of mitochondrial RNA and chromosomal DNA in fibroblasts cultured with ddC
Assay type: cell-based
Procedure: In this example, the NASBA nucleic acid amplification reactions for DNA target sequences were performed in a 20 μl reaction volume and contained: 40 mM Tris-pH 8.5, 70 mM KCl, 12 mM MgCl2, 5 mM dithiotreitol, 1 mM dNTPs (each), 2 mM rNTPs (each), 0.2 μM primer (each), 0.05 μM molecular beacon, 1.5 units restriction enzyme Msp I, 375 mM sorbitol, 0.105 μg/μl bovine serum albumin, 6.4 units AMV RT, 32 units T7 RNA polymerase, 0.08 units RNAse H and input nucleic acid. The complete mixture, except the enzymes sorbitol and bovine serum albumin, was, prior to adding the enzyme mixture, incubated at 37° C. for 25 minutes and subsequently heated to 95° C. for two minutes in order to denature the DNA and to allow the primers to anneal. After cooling the mixture to 41° C., the enzyme mixture was added. The amplification took place at 41° C. for 90 minutes in a fluorimeter (CytoFluor 2000) and the fluorescent signal was measured every minute (using the filter set 530/25 nm and 485/30 nm). To achieve quantification, a dilution series of target sequence for a particular primer set was amplified and the time points at which the reactions became positive (the time to positivity, TTP) were plotted against the input amounts of nucleic acid. This way a calibration curve was created that could be used to read TTP values of reactions with unknown amounts of input and deduce the input amount. […] After five days, the cells were harvested and analyzed for an amount of chromosomal DNA (primers SnrpD p1 and SnrpD2 p2 and probe SnrpD mb) with the described NASBA protocol in the chapter “Used ingredients and general methodology” and compared with the NASBA protocol as described in this example. […]
Different ratios of mitochondrial RNA target and chromosomal DNA target in a plasmid were analyzed in this example: 2×10^3 U1a DNA/5×10^4 Mt RNA, 2×10^3 U1a DNA/2.5×10^5 Mt RNA, 2×10^3 U1a DNA/5×10^5 Mt RNA, 2×10^3 U1a DNA/2.5×10^6 Mt RNA, 2×10^3 U1a DNA/5×10^6 Mt RNA, 2×10^3 U1a DNA/10^7 Mt RNA, 2×10^3 U1a DNA/2.5×10^7 Mt RNA molecules were included. […]

For `Nc1ccn([C@H]2CC[C@@H](CO)O2)c(=O)n1` [ddC], the “amount of mitochondrial RNA in continued culture in the absence of ddC” value (ddC 30 μM eight weeks, then without ddC (week 10, 12, 14 and 16)) was “clear rebound”, the “amount of mitochondrial RNA in continued culture in the presence of ddC” value (ddC 30 μM, after week eight, another eight weeks) was “remains very low” and the “mitochondrial RNA of fibroblasts in the presence of ddC” value (ddC 30 μM, eight weeks, FIG. 23) was “lose their mitochondrial RNA”.
